Legend:
TLR7 = molecular target: T1, TLR7 (Homo sapiens, UniProt Q9NYK1); format: cell-based
T1 construct: expressed in transfected cells
T1 sequence (Q9NYK1 27-1049): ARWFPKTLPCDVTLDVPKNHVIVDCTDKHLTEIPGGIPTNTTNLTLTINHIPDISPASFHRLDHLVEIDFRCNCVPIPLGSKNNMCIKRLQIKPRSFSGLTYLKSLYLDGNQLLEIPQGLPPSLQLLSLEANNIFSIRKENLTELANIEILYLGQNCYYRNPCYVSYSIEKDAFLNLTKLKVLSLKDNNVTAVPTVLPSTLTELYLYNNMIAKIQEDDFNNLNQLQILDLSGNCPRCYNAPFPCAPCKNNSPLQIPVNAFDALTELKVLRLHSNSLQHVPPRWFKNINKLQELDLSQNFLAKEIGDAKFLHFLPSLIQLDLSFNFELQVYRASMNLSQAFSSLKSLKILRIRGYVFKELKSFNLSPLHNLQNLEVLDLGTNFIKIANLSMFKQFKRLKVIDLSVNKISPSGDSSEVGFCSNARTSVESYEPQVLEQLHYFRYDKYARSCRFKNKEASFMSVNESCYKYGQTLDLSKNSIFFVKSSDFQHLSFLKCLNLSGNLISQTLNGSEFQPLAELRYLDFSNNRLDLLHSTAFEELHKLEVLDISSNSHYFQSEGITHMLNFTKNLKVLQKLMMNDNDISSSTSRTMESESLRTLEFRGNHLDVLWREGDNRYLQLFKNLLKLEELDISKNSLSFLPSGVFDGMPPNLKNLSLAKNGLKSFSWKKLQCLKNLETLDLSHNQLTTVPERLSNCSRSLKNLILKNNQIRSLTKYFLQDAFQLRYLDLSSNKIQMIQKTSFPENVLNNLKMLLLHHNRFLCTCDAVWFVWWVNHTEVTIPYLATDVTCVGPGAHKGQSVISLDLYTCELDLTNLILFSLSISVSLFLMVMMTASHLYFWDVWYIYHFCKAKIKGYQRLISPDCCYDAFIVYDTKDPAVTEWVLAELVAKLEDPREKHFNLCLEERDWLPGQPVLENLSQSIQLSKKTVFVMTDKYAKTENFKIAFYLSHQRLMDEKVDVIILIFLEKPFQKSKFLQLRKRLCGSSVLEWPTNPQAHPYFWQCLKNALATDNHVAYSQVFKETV
Experimental: (§1) Human U205-TLR7 and Human U205-TLR8 cells were grown at 37 degrees in the presence of 5% CO2 and were cultured in Dulbeco's modified Eagle's Medium (DMEM), 1% non essential amino acids, supplemented with fetal bovine serum at 10% and 100 ug/ml streptomycin and 100 u/ml penicillin. Stable expression of TLR7 and TLR8 was maintained by the addition of 300 ug/ml […].
(§2) TLR7 and TLR8 expressing U2OS osteosarcoma cells were seeded in 96-well plate format at a concentration of 2×10^4 cells/well 24 hours prior to transfection. Cells were transfected with the siNAs using DharmaFECT1 lipid transfection reagent using Resiquimod (R848) and the LyoVec-complexed, GU-rich oligonucleotide ssRNA40 respectively as controls (100 μl/well). (DharmaFECT1 was used as the delivery agent for the siNAs as it combines low immunostimulatory effects with high delivery efficiency.) The treatment media were replaced after 6 hours with antibiotic containing DMEM. Cells were harvested 24 hours following transfection. […] An agonist concentration range of 4-10 μg/ml was established since it caused optimal levels of IL8 mRNA expression for the assay.
(§3) TLR7 and TLR8 mediated immunostimulation was measured by the increase in IL8 mRNA levels when the siNAs were formulated with DharmaFect1 (Gibco BRL) and delivered to U2OS cells that were engineered to stably express TLR7 or TLR8. The cells were treated with the TLR7 and TLR8 agonists Resiquimod (R848) and ssRNA40/LyoVec respectively to act as positive controls for IL8 mRNA induction. IL8 mRNA levels were used as a biomarker of TLR7 and TLR8 mediated immunostimulation.

TLR8 = molecular target: T2, TLR8 (Homo sapiens, UniProt Q9NR97); format: cell-based
T2 construct: expressed in transfected cells
T2 sequence (Q9NR97 27-1041): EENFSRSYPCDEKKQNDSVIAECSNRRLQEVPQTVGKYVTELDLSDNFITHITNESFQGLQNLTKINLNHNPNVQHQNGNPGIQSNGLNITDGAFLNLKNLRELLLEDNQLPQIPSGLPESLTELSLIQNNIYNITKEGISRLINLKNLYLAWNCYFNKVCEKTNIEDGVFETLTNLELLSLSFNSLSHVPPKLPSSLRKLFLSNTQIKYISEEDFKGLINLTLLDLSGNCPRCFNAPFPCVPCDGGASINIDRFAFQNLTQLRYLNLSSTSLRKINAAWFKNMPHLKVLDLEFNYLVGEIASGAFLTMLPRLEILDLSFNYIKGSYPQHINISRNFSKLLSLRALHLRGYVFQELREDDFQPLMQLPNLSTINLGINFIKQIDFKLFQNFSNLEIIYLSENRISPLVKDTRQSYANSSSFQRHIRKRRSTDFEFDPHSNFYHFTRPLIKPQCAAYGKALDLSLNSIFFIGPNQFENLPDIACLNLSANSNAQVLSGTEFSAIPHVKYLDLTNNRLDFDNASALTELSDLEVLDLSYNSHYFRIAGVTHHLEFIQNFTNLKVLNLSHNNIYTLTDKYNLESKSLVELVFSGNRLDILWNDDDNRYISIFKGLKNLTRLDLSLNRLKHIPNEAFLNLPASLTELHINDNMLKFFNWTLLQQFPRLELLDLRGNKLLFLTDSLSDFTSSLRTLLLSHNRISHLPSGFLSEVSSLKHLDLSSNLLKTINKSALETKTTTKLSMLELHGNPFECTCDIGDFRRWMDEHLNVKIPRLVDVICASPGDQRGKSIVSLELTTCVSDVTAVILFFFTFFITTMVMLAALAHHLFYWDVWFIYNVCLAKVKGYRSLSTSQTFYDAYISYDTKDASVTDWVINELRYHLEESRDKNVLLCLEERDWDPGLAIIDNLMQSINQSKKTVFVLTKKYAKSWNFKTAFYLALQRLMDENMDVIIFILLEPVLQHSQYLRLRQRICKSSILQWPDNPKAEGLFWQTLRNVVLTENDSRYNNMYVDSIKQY
Experimental: as §1, §2, §3

Row | Substance | Immunostimulation TLR7 mediated in Human U2OS- TLR7 cells IL8 mRNA increase n = 4 individual expts (TLR7) | TLR7 mediated immunostimulatory activity (IL8 mRNA induction) (TLR7) | Immunostimulation TLR8 mediated in Human U2OS-TLR8 cells IL8 mRNA increase n = 4 individual expts (TLR8) | TLR8 mediated immunostimulatory activity (IL8 mRNA induction) (TLR8)
1 | 29988-DC (sense AUUUGAACCUUUAAUUCAGTT; antisense CUGAAUUAAAGGUUCAAAUUU; inverted abasic end caps, TT overhangs, modified nucleotides, further chemistry not given here) | No significant effect up to 100 nM | no or very low TLR7 mediated immunostimulatory activity | No significant effect up to 100 nM | no TLR8 mediated immunostimulatory activity
2 | 29947-DC (sense GGAAUCCUGCUUUCAGUUUTT; antisense AAACUGAAAGCAGGAUUCCUU; inverted abasic caps (B), 2'-modified nucleotides, further chemistry not given here) | No significant effect up to 100 nM | no or very low TLR7 mediated immunostimulatory activity | No significant effect up to 100 nM | no TLR8 mediated immunostimulatory activity
3 | 29957-DC (sense GCAGUUACUUCCACUCAAGTT; antisense CUUGAGUGGAAGUAACUGCUU; inverted abasic end caps, TT overhangs, modified nucleotides, further chemistry not given here) | Upregulation up to 100 nM | – | Upregulation up to 100 nM | –
4 | 29964-DC (sense GAUUUGCAGGUGAUGUUAATT; antisense UUAACAUCACCUGCAAAUCUU; inverted abasic end caps, TT overhangs, modified nucleotides, further chemistry not given here) | No significant effect up to 100 nM | no or very low TLR7 mediated immunostimulatory activity | No significant effect up to 100 nM | no TLR8 mediated immunostimulatory activity
5 | 29956-DC (sense GUCUGAGUGUCCGUGGUUATT; antisense UAACCACGGACACUCAGACUU; inverted abasic caps (B), 2'-modified nucleotides, further chemistry not given here) | No significant effect up to 100 nM | – | No significant effect up to 100 nM | –
6 | 29961-DC (sense CUACACUGCUAAACUGAUUTT; antisense AAUCAGUUUAGCAGUGUAGUU; inverted abasic end caps, TT overhangs, modified nucleotides, further chemistry not given here) | No significant effect up to 100 nM | no or very low TLR7 mediated immunostimulatory activity | No significant effect up to 100 nM | no TLR8 mediated immunostimulatory activity
7 | 29984-DC (sense GUUAAAGGAUUUGAACCUUTT; antisense AAGGUUCAAAUCCUUUAACUU; inverted abasic end caps, TT overhangs, modified nucleotides, further chemistry not given here) | No significant effect up to 100 nM | no or very low TLR7 mediated immunostimulatory activity | No significant effect up to 100 nM | no TLR8 mediated immunostimulatory activity
